Source: US20150253305A1, “METHODS OF IDENTIFYING COMPOUNDS FOR TREATING DEPRESSION AND OTHER RELATED DISEASES” (NORTHWESTERN UNIVERSITY, priority 2012, published 2015)
Peptide text beside a SMILES is read from it.

How the values were obtained:
[1] = system: Sprague-Dawley rats; assay: Ketamine drug discrimination; conditions: FIG. 5: drug discrimination, place preference, prepulse inhibition, open field
[2] = system: Sprague-Dawley rats; assay: Porsolt test; conditions: IV
[3] = system: Wnt signaling pathway gene expression; assay: Wnt pathway-specific qRT-PCR array in mPFC; format: in vivo, rat
Description: Adult (2-3 month-old) male Sprague-Dawley rats (Harlan Laboratories, Indianapolis, Ind.) were housed 3 to a cage and injected (IV) with one of the following—GLYX-13 (3 mg/kg), ketamine (10 mg/kg), or saline vehicle (1 ml/kg). At 1 and 24 hours after injection (N=5 per time point for each treatment group), rats were sacrificed, their brains were quickly dissected, frozen, and then stored at −80° C. The medial prefrontal cortex (mPFC) was dissected from frozen tissue on ice. An equal volume of the homogenized tissue was used to extract and purify RNA for microarray analysis and to make cDNA for qRT-PCR analysis. All procedures were approved by the Northwestern University IACUC committee and performed in accordance with the NIH Guide for the Care and Use of Laboratory Animals.
Reverse transcription of 1.0 μg of DNAsed, total RNA from 4 rats was primed with oligo(dT) and random hexamers. We utilized SuperScriptIII according to manufacturer's specifications (Invitrogen, Carlsbad, Calif.). A 1:10 dilution of cDNA was used as a template for quantitative real-time PCR, and the analysis was performed with Brilliant SYBR Green qRT-PCR Master Mix (Stratagene) on a Mx3000P Real-Time PCR System. ROX reference dye was included in all reactions. […]

[4] = system: Sprague-Dawley rats; assay: Open field locomotor activity (line crosses); conditions: 0.1 μg, 20 min following MPFC infusion

`C[C@@H](O)[C@H](N)C(=O)N1CCC[C@H]1C(=O)N1CCC[C@H]1C(=O)N[C@H](C(N)=O)[C@@H](C)O` [GLYX-13, L-threonyl-L-prolyl-L-prolyl-L-threonine amide] (H-TPPT-NH2) was tested, and the “ketamine-like addictive sensory motor gating, or sedative side effects” value [1] was “does not show ketamine-like addictive sensory motor gating, or sedative side effects”.

For `CNC1(c2ccccc2Cl)CCCCC1=O` (stereo not drawn) [Ketamine, ketamine], the “anti-depressant effect in the Porsolt test” value ([2]; 10 mg/kg) was “produces a long-lasting anti-depressant effect”, the “rapid antidepressant-like effects in the Porsolt test” value ([2]; rat) was “produce rapid antidepressant-like effects” and the “number of genes downregulated (Wnt qRT-PCR array)” value ([3]; 1 and 24 hrs following administration, 10 mg/kg IV, mPFC) was 1 gene. The “Frizzled 2 (Fzd) gene expression (Wnt qPCR array)” value ([3]; following injection, relative to vehicle control rats) was “Significant gene expression changes” and the “locomotor activity (line crosses in the open field) following MPFC infusion” value [4] was “increased locomotor activity”.
